The values that follow come from patent publication US9669029B2, “Heteroaromatic phenylimidazole derivatives as PDE10A enzyme inhibitors” (H. Lundbeck A/S, priority 2009, dated 2017).

Test [1] has as its target PDE10A (Homo sapiens (Human), UniProt Q9Y233). Nature of the test: PDE10A inhibition assay. It is filed as biochemical. As to the method: Active PDE10A enzyme is prepared in a number of ways for use in PDE assays (Loughney, K. et al. Gene 1999, 234, 109-117; Fujishige, K. et al. Eur J Biochem. 1999, 266, 1118-1127 and Soderling, S. et al. Proc. Natl. Acad. Sci. 1999, 96, 7071-7076). PDE10A can be expressed as full-length proteins or as truncated proteins, as long as they express the catalytic domain. PDE10A can be prepared in different cell types, for example insect cells or E. coli. […]
A PDE10A assay may for example, be performed as follows: The assay is performed in 60 uL samples containing a fixed amount of the relevant PDE enzyme (sufficient to convert 20-25% of the cyclic nucleotide substrate), a buffer (50 mM HEPES7.6; 10 mM MgCl2; 0.02% Tween20), 0.1 mg/ml BSA, 225 pCi of ^3H-labelled cyclic nucleotide substrate, tritium labeled cAMP to a final concentration of 5 nM and varying amounts of inhibitors. […] The beads are allowed to settle for one hr in the dark before the plates are counted in a Wallac 1450 Microbeta counter. The measured signal can be converted to activity relative to an uninhibited control (100%) and IC50 values can be calculated using the Xlfit extension to EXCEL.

In test [2] the test system is rats. As to conditions: cited from earlier work.

Broadly, the IC50 is the concentration at which inhibition is half-maximal. Low values mean inhibition by little substance, high ones a need for much substance.

PDE10A, sequence (Q9Y233 716-1055): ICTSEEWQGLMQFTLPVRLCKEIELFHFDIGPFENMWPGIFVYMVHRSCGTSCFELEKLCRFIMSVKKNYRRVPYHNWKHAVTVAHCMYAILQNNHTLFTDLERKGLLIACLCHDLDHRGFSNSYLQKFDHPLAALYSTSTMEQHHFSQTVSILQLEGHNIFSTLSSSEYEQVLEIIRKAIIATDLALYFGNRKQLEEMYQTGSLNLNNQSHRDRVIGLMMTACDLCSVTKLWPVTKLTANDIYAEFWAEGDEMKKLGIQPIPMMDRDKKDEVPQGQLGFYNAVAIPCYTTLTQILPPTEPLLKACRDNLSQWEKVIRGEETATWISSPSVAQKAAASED

Consider `Cc1cccn2nc(CCc3nc(-c4cccnc4)cn3C)nc12` [8-Methyl-2-[2-(1-methyl-4-pyridin-3-yl-1H-imidazol-2-yl)-ethyl]-[1,2,4]triazolo[1,5-a]pyridine], for which, in test [1], inhibition was half-maximal at 0.075 µM (IC50).
With `COc1ccc(Cc2nccc3cc(OC)c(OC)cc23)cc1OC` [Papaverine, papaverine], in test [2] (papaverine alone), the “catalepsy on its own” value is on record as “did not cause catalepsy”. The “effect on the cataleptic effect of the D2 receptor antagonist haloperidol” value in test [2] (with haloperidol) is “potentiated”.
The molecule `COc1cccn2nc(/C=C/c3nc(-c4ccc(C)o4)cn3C)nc12` [8-Methoxy-2-{(E)-2-[1-methyl-4-(5-methyl-furan-2-yl)-1H-imidazol-2-yl]-vinyl}-[1,2,4]triazolo[1,5-a]pyridine] had an IC50 in test [1] of 0.14 µM.
